tested on: not listed separately; assay: log P determination by HPLC (reversed-phase C18, EEC Directive 79/831 Annex V.A8); type: physicochemical; settings: reversed-phase C18 HPLC column, pH 2.3, pH 2.3, 0.1% aqueous phosphoric acid/acetonitrile gradient, 43° C
Source text: Mobile phases for determination in the acidic range: 0.1% aqueous phosphoric acid, acetonitrile; linear gradient from 10% acetonitrile to 90% acetonitrile.

With `CCCN(CC)c1ncc(Br)cn1` [III-3, N-(5-bromo-2-pyrimidinyl)-N-ethyl-N-propylamine] as the compound, how does the chromatographic logP read?
Its chromatographic logP is 4.38.

Which chromatographic logP does the source give for `Brc1cnc(N2CCOCC2)nc1` [III-5, 4-(5-bromo-2-pyrimidinyl)morpholine] here?
Its chromatographic logP is 2.15.

With `CC(C)(C)C(=O)N1CCN(c2ncc(Br)cn2)CC1` [III-6, 1-(tert-butylcarbonyl)-4-(5-bromo-2-pyrimidinyl)piperazine] as the compound, how does the chromatographic logP read?
Its chromatographic logP is 2.86.

Which chromatographic logP does the source give for `CC(C)Oc1ncc(Br)cn1` [III-7, 5-bromo-2-pyrimidinyl isopropyl ether] here?
Its chromatographic logP is 2.39.

With `CC(C)Sc1ncc(Br)cn1` [III-8, 5-bromo-2-pyrimidinyl isopropyl sulphide] as the compound, how does the chromatographic logP read?
The chromatographic logP was 3.34.

For `CCN(CC)c1ccc(Cl)nn1` [III-10, N-(6-chloro-3-pyridazinyl)-N,N-diethylamine], which chromatographic logP is on record?
The chromatographic logP was 0.51.

For `CCCN(CCC)c1ccc(Cl)nn1` [III-12, N-(6-chloro-3-pyridazinyl)-N,N-dipropylamine], which chromatographic logP is on record?
Its chromatographic logP is 1.82.

With `O=C(OCc1ccccc1)N1CCN(c2ccc(Cl)nn2)CC1` [III-13, benzyl 4-(6-chloro-3-pyridazinyl)-1-piperazinecarboxylate] as the compound, how does the chromatographic logP read?
Its chromatographic logP is 2.36.

With `O=C1CCCN1c1ccc(Cl)nn1` [III-14, 1-(6-chloro-3-pyridazinyl)-2-pyrrolidinone] as the compound, how does the chromatographic logP read?
Its chromatographic logP is 1.09.

For `Clc1ccc(NC2CCCCC2)nn1` [III-15, N-(6-chloro-3-pyridazinyl)-N-cyclohexylamine], which chromatographic logP is on record?
Its chromatographic logP is 0.95.

For `CN(C(=O)C(C)(C)C)c1ccc(Cl)nn1` [III-17, N-(6-chloro-3-pyridazinyl)-N-methyl-N-2,2-trimethylpropanamide], which chromatographic logP is on record?
Its chromatographic logP is 1.69.

For `CC(C)Oc1ccc(Cl)nn1` [III-18, 3-chloro-6-isopropoxypyridazine], which chromatographic logP is on record?
The chromatographic logP was 1.94.

Which chromatographic logP does the source give for `FC(F)(F)COc1ccc(Cl)nn1` [III-19, 3-chloro-6-(2,2,2-trifluoroethoxy)pyridazine] here?
Its chromatographic logP is 2.05.

Which chromatographic logP does the source give for `CC(C)Sc1ccc(Cl)nn1` [III-20, 6-chloro-3-pyridazinyl isopropyl sulphide] here?
Its chromatographic logP is 2.34.

For `CC(C)S(=O)(=O)c1ccc(Cl)nn1` [III-21, 6-chloro-3-pyridazinyl isopropyl sulphone], which chromatographic logP is on record?
Its chromatographic logP is 1.2.

With `O=S(=O)(Nc1ccc(Cl)nn1)C(F)(F)F` [III-22, N-(6-chloro-3-pyridazinyl)(trifluoro)methane-sulphonamide] as the compound, how does the chromatographic logP read?
The chromatographic logP was 1.56.

With `CN(c1ccc(Cl)nn1)S(=O)(=O)C(F)(F)F` [III-23, N-(6-chloro-3-pyridazinyl)(trifluoro)-N-methyl-methanesulphonamide] as the compound, how does the chromatographic logP read?
Its chromatographic logP is 2.18.

tested on: greenhouse red spider mite (tetranychus urticae); assay: Tetranychus test (OP-resistant/dip treatment); type: in vivo; settings: active compound concentration 100 ppm, OP-resistant, dip treatment
Procedure: Tetranychus Test (OP Resistant/Dip Treatment)
To produce a suitable preparation of active compound, 1 part by weight of active compound is mixed with the stated amounts of solvent and emulsifier, and the concentrate is diluted with emulsifier-containing water to the desired concentration.
Bean plants (Phaseolus vulgaris) which are heavily infested by all stages of the greenhouse red spider mite (tetranychus urticae) are dipped into a preparation of active compound of the desired concentration.
After the desired period of time, the effect in % is determined. 100% means that all spider mites have been killed; 0% means that none of the spider mites have been killed.

Which “Kill rate in % after 7 d” value does the source give for `Fc1cccc(F)c1C1=NC(c2ccc(-c3cncnc3)cc2)CC1` (centres unmarked) [drawing 293] here?
The value was 98%.

For `Fc1cccc(F)c1C1=NC(c2ccc(-c3ccc(Cl)cn3)cc2)CC1` (centres unmarked) [drawing 294], which “Kill rate in % after 7 d” value is on record?
The value was 98%.

For `CN(C)c1ncc(-c2ccc(C3CCC(c4c(F)cccc4F)=N3)cc2)cn1` (centres unmarked) [drawing 295], which “Kill rate in % after 7 d” value is on record?
Its value is 98%.

Which “Kill rate in % after 7 d” value does the source give for `CC(C)Oc1ncc(-c2ccc(C3CCC(c4c(F)cccc4F)=N3)cc2)cn1` (centres unmarked) [drawing 296] here?
Its value is 98%.

For `CC(C)Sc1ccc(-c2ccc(C3CCC(c4c(F)cccc4F)=N3)cc2)nn1` (centres unmarked) [drawing 297], which “Kill rate in % after 7 d” value is on record?
Its value is 98%.

Which “Kill rate in % after 7 d” value does the source give for `Fc1cccc(F)c1C1=NC(c2ccc(-c3cnc(N4CCOCC4)nc3)cc2)CC1` (centres unmarked) [drawing 298] here?
Its value is 98%.

Which “Kill rate in % after 7 d” value does the source give for `Fc1cccc(F)c1C1=NC(c2ccc(-c3ccc(Cl)nc3)cc2)CC1` (centres unmarked) [drawing 299] here?
The value was 98%.

tested on: army worm (Spodoptera exigua) caterpillars; assay: Spodoptera exigua test (cabbage leaves dipped); type: in vivo; settings: active compound concentration 500 ppm
Procedure: (§1) Spodoptera Exigua Test To produce a suitable preparation of active compound, 1 part by weight of active compound is mixed with the stated amounts of solvent and emulsifier, and the concentrate is diluted with emulsifier-containing water to the desired concentration. Cabbage leaves (Brassica oleracea) are treated by being dipped into the preparation of active compound of the desired concentration and are populated with army worm (Spodoptera exigua) caterpillars whilst the leaves are still moist. After the desired period of time, the kill in % is determined. 100% means that all caterpillars have been killed; 0% means that none of the caterpillars have been killed.

Which “Kill rate in % after 7 d” value does the source give for `Fc1cccc(F)c1C1=NC(c2ccc(-c3ccc(OCC(F)(F)F)nc3)cc2)CC1` (centres unmarked) [drawing 277] here?
The value was 100%.

With `CCCN(CC)c1ncc(-c2ccc(C3CCC(c4c(F)cccc4F)=N3)cc2)cn1` (centres unmarked) [drawing 278] as the compound, how does the “Kill rate in % after 7 d” value read?
Its value is 100%.

same assay, conditions: active compound concentration 1000 ppm

With `Fc1cccc(F)c1C1=NC(c2ccc(-c3ccc(N4CCOCC4)nc3)cc2)CC1` (centres unmarked) [drawing 279] as the compound, how does the “Kill rate in % after 7 d” value read?
The value was 100%.

tested on: Heliothis virescens caterpillars; assay: Heliothis virescens test (soya bean shoots dipped); type: in vivo; settings: active compound concentration 40 ppm
Procedure: as §1, with “Heliothis Virescens” for “Spodoptera Exigua”, “Soya bean shoots (Glycine max)” for “Cabbage leaves (Brassica oleracea)”, “Heliothis virescens” for “army worm (Spodoptera exigua)”

Which “Kill rate in % after 7 d” value does the source give for `Fc1cccc(F)c1C1=NC(c2ccc(-c3ccc(OCC(F)(F)F)nn3)cc2)CC1` (centres unmarked) [drawing 264] here?
The value was 100%.

Which “Kill rate in % after 7 d” value does the source give for `CC(C)Oc1ncc(-c2ccc(C3CCC(c4c(F)cccc4F)=N3)cc2)cn1` (centres unmarked) [drawing 265] here?
The value was 100%.

For `Fc1cccc(F)c1C1=NC(c2ccc(-c3ccc(C(F)(F)F)cn3)cc2)CC1` (centres unmarked) [drawing 266], which “Kill rate in % after 7 d” value is on record?
Its value is 100%.

With `CCCN(CC)c1ncc(-c2ccc(C3CCC(c4c(F)cccc4F)=N3)cc2)cn1` (centres unmarked) [drawing 268] as the compound, how does the “Kill rate in % after 7 d” value read?
The value was 100%.

same assay, conditions: active compound concentration 500 ppm

With `Fc1cccc(F)c1C1=NC(c2ccc(-c3ccc(OCC(F)(F)F)nc3)cc2)CC1` (centres unmarked) [drawing 267] as the compound, how does the “Kill rate in % after 7 d” value read?
Its value is 100%.

Which “Kill rate in % after 7 d” value does the source give for `Fc1cccc(F)c1C1=NC(c2ccc(-c3ccc(N4CCOCC4)nc3)cc2)CC1` (centres unmarked) [drawing 269] here?
The value was 100%.

tested on: larvae of the mustard beetle (Phaedon cochleariae); assay: Phaedon larvae test (cabbage leaves dipped); type: in vivo; settings: active compound concentration 1000 ppm
Procedure: as §1, with “Phaedon Larvae” for “Spodoptera Exigua”, “larvae of the mustard beetle (Phaedon cochleariae)” for “army worm (Spodoptera exigua) caterpillars”, “beetle larvae” for “caterpillars”

Which “Kill rate in % after 7 d” value does the source give for `CC(C)Oc1ncc(-c2ccc(C3CCC(c4c(F)cccc4F)=N3)cc2)cn1` (centres unmarked) [drawing 270] here?
Its value is 100%.

Which “Kill rate in % after 7 d” value does the source give for `Fc1cccc(F)c1C1=NC(c2ccc(-c3ccc(C(F)(F)F)cn3)cc2)CC1` (centres unmarked) [drawing 271] here?
The value was 100%.

With `CC(C)Sc1ncc(-c2ccc(C3CCC(c4c(F)cccc4F)=N3)cc2)cn1` (centres unmarked) [drawing 272] as the compound, how does the “Kill rate in % after 7 d” value read?
The value was 100%.

With `Fc1cccc(F)c1C1=NC(c2ccc(-c3ccc(OCC(F)(F)F)nc3)cc2)CC1` (centres unmarked) [drawing 273] as the compound, how does the “Kill rate in % after 7 d” value read?
Its value is 100%.

With `CCCN(CC)c1ncc(-c2ccc(C3CCC(c4c(F)cccc4F)=N3)cc2)cn1` (centres unmarked) [drawing 274] as the compound, how does the “Kill rate in % after 7 d” value read?
The value was 100%.

Which “Kill rate in % after 7 d” value does the source give for `CC1CC(C)CN(c2ncc(-c3ccc(C4CCC(c5c(F)cccc5F)=N4)cc3)cn2)C1` (centres unmarked) [drawing 275] here?
Its value is 100%.

For `Fc1cccc(F)c1C1=NC(c2ccc(-c3cnc(N4CCCCC4)nc3)cc2)CC1` (centres unmarked) [drawing 276], which “Kill rate in % after 7 d” value is on record?
The value was 100%.

tested on: army worm (Spodoptera frugiperda) caterpillars; assay: Spodoptera frugiperda test (cabbage leaves dipped); type: in vivo; settings: 168 h, active compound concentration 500 ppm, after 7 d, read-out: Kill rate in % after 7 d
Procedure: as §1, with “frugiperda” for “Exigua”, “frugiperda)” for “exigua)”

Which pest or weed control at 500 ppm does the source give for `O=C1CCCN1c1ccc(-c2ccc(C3CCC(c4c(F)cccc4F)=N3)cc2)nn1` (centres unmarked) [drawing 285] here?
Its pest or weed control at 500 ppm is 100%.

For `CN(c1ccc(-c2ccc(C3CCC(c4c(F)cccc4F)=N3)cc2)nn1)S(=O)(=O)C(F)(F)F` (centres unmarked) [drawing 286], which pest or weed control at 500 ppm is on record?
Its pest or weed control at 500 ppm is 100%.

Which pest or weed control at 500 ppm does the source give for `CCCCN(CCCC)c1ccc(-c2ccc(C3CCC(c4c(F)cccc4F)=N3)cc2)nn1` (centres unmarked) [drawing 287] here?
The pest or weed control at 500 ppm was 100%.

same assay, conditions: 168 h, active compound concentration 1000 ppm, after 7 d, read-out: Kill rate in % after 7 d

With `CCCCCCN(CCCCCC)c1ccc(-c2ccc(C3CCC(c4c(F)cccc4F)=N3)cc2)nn1` (centres unmarked) as the compound, how does the pest or weed control at 1000 ppm read?
Its pest or weed control at 1000 ppm is 100%.

Which pest or weed control at 1000 ppm does the source give for `Fc1cccc(F)c1C1=NC(c2ccc(-c3ccc(Cl)cn3)cc2)CC1` (centres unmarked) [drawing 280] here?
The pest or weed control at 1000 ppm was 100%.

For `CN(C)c1ncc(-c2ccc(C3CCC(c4c(F)cccc4F)=N3)cc2)cn1` (centres unmarked) [drawing 281], which pest or weed control at 1000 ppm is on record?
Its pest or weed control at 1000 ppm is 100%.

With `CC(C)Oc1ccc(-c2ccc(C3CCC(c4c(F)cccc4F)=N3)cc2)nn1` (centres unmarked) [drawing 282] as the compound, how does the pest or weed control at 1000 ppm read?
Its pest or weed control at 1000 ppm is 100%.

Which pest or weed control at 1000 ppm does the source give for `CC(C)Sc1ccc(-c2ccc(C3CCC(c4c(F)cccc4F)=N3)cc2)nn1` (centres unmarked) [drawing 283] here?
The pest or weed control at 1000 ppm was 100%.

For `Fc1cccc(F)c1C1=NC(c2ccc(-c3cnc(N4CCOCC4)nc3)cc2)CC1` (centres unmarked) [drawing 284], which pest or weed control at 1000 ppm is on record?
Its pest or weed control at 1000 ppm is 100%.

Which pest or weed control at 1000 ppm does the source give for `CCCCCCC(=O)N(c1ccc(-c2ccc(C3CCC(c4c(F)cccc4F)=N3)cc2)nn1)C1CCCC1` (centres unmarked) [drawing 289] here?
Its pest or weed control at 1000 ppm is 100%.

For `CCCCCCN(C(=O)C(C)(C)C)c1ccc(-c2ccc(C3CCC(c4c(F)cccc4F)=N3)cc2)nn1` (centres unmarked) [drawing 290], which pest or weed control at 1000 ppm is on record?
The pest or weed control at 1000 ppm was 100%.

For `CC(C)COc1ncc(-c2ccc(C3CCC(c4c(F)cccc4F)=N3)cc2)cn1` (centres unmarked) [drawing 291], which pest or weed control at 1000 ppm is on record?
Its pest or weed control at 1000 ppm is 100%.

For `CC1CC(C)CN(c2ncc(-c3ccc(C4CCC(c5c(F)cccc5F)=N4)cc3)cn2)C1` (centres unmarked) [drawing 292], which pest or weed control at 1000 ppm is on record?
Its pest or weed control at 1000 ppm is 100%.
